Experimental data reported in paper PMC2682676 (Diabetes, 2009).

Assays:
[1] = test system: subjects with type 2 diabetes; type: in vivo, human
[2] = test system: subjects with type 2 diabetes; assay: Gastric emptying by appearance of acetaminophen in plasma during GIP infusion; type: in vivo, human; conditions: 1 g acetaminophen with first bite; last 10 subjects
[3] = test system: αTC1 cells; assay: Glucagon secretion from αTC1 cells; type: cell-based; conditions: αTC1 cells stimulated with GIP; secretion into the medium

## CC[C@H](C)[C@H](NC(=O)[C@H](CO)NC(=O)[C@H](Cc1ccc(O)cc1)NC(=O)[C@H](CC(=O)O)NC(=O)[C@H](CO)NC(=O)[C@@H](NC(=O)[C@H](Cc1ccccc1)NC(=O)[C@@H](NC(=O)CNC(=O)[C@H](CCC(=O)O)NC(=O)[C@H](C)NC(=O)[C@@H](N)Cc1ccc(O)cc1)[C@@H](C)O)[C@@H](C)CC)C(=O)N[C@@H](C)C(=O)N[C@@H](CCSC)C(=O)N[C@@H](CC(=O)O)C(=O)N[C@@H](CCCCN)C(=O)N[C@H](C(=O)N[C@@H](Cc1c[nH]cn1)C(=O)N[C@@H](CCC(N)=O)C(=O)N[C@@H](CCC(N)=O)C(=O)N[C@@H](CC(=O)O)C(=O)N[C@@H](Cc1ccccc1)C(=O)N[C@H](C(=O)N[C@@H](CC(N)=O)C(=O)N[C@@H](Cc1c[nH]c2ccccc12)C(=O)N[C@@H](CC(C)C)C(=O)N[C@@H](CC(C)C)C(=O)N[C@@H](C)C(=O)N[C@@H](CCC(N)=O)C(=O)N[C@@H](CCCCN)C(=O)NCC(=O)N[C@@H](CCCCN)C(=O)N[C@@H](CCCCN)C(=O)N[C@@H](CC(N)=O)C(=O)N[C@@H](CC(=O)O)C(=O)N[C@@H](Cc1c[nH]c2ccccc12)C(=O)N[C@@H](CCCCN)C(=O)N[C@@H](Cc1c[nH]cn1)C(=O)N[C@@H](CC(N)=O)C(=O)N[C@H](C(=O)N[C@H](C(=O)N[C@@H](CCC(N)=O)C(=O)O)[C@@H](C)O)[C@@H](C)CC)C(C)C)[C@@H](C)CC [GIP, Glucose-dependent insulinotropic polypeptide]
[1]; 20 ng/kg/min i.v., 0-60 min, positive AUC0-60 P < 0.01, n = 22
  plasma glucagon, early postprandial period vs placebo: statistically significant augmentation in glucagon secretion
[1]; 20 ng/kg/min i.v., t = 0-60 min, negative AUC0-60 P < 0.05, n = 22
  plasma glucose, early postprandial period vs placebo: early transient decrease in plasma glucose
[1]; 20 ng/kg/min i.v., t = 0-60 min, positive AUC0-60 P < 0.01, n = 22
  plasma insulin, early postprandial period vs placebo: statistically significant increase in plasma insulin
[1]; during 3 h of infusion, data not shown
  resistin levels vs placebo: no effect on resistin levels
[2]
  gastric emptying (plasma acetaminophen levels, AUCALL t = 0-180 min) vs placebo: did not affect gastric emptying
[3]
  glucagon secretion: glucagon secretion in a concentration-dependent manner
